Measured values published in patent US5508275A, “Lipid-selective antioxidants and their preparation and use” (Hoechst Aktiengesellschaft, priority 1990, dated 1996).
Counter-ions that a name gives are not always drawn.

Key:
[1] = Solubility in water and olive oil (Method III)
Experimental: a) Preparation of olive oil or aqueous solutions. 1 ml of olive oil or I ml of double-distilled water (or dilute NaOH pH=7.6) was added to 1 mg or 10 mg or 50 mg of the respective compound at 37° C. and it was checked whether a clear solution was obtained. The optionally centrifuged and decanted olive oil solutions were heated for 5 minutes using a Bunsen burner and the degree of browning of the olive oil was determined. […] Samples having poor protective action are given a (*) in the table (see below).

[2] = Use as an additive in frying fat: color change of butter (Method II); settings: 1% (weight/weight) in butter
Experimental: Use as an additive in frying fat: Samples of commercially available German non-blended butter were melted and in each case 1% (weight/weight) of BHT (=butylated hydroxytoluene) or 2,6-di-tert.-butyl-4-(7-nonynoyl)-phenol [=compound according to Example 17] or ethyl 2-(3,5-di-tert.-butyl-4-hydroxybenzyl)-3-oxo-docosanoate [=compound according to Example 18] or N-octadecyl-DL-α-lipoic acid amide [=compound according to Example 52] was added and the mixture was used in the customary manner as frying fat. […] The better protective action of the […] probably comes about as a result of their lipophilic side chains and, therefore, improved lipophilic interaction. The advantageous action of N-octadecyl-DL-α-lipoic acid amide is particularly surprising, although this preparation has no recognizable antioxidative component.

[3] = Inhibition of the oxidation of lipids: SA-PC in cyclohexane (Method IV); type: biochemical; settings: 37° C., absorption at 234 nm
Experimental: Oxidation of 1-stearoyl-2-arachidonoylphosphatidylcholine (SA-PC) in cyclohexane (37° C.). 100 mcl of a SA-PC solution (10 mg/ml of CHCl3) were evaporated by blowing (argon) and the residue was taken up in 1 ml of cyclohexane. After adding an amount of antioxidant which would also dissolve in olive oil (cf. Table 1), the absorption was measured at 234 nm (Perkin Elmer 5528 spektrophotometer, Uberlingan, FRG) and the solvent was then evaporated by blowing with air. After a fur%her 24 hours standing in an open vessel, the residue was again dissolved in i ml of cyclohexane and the absorption at 234 nm was measured as a measurement of the oxidized SA-PC.

[4] = test system: thrombus formation in rats; assay: Laser-induced thrombosis in rats in vivo (Method VIII); set-up: species or system rat; settings: 30 mg/kg oral, laser induction 60 min after administration
Experimental: The experimental procedure was carried out in every detail as described in U.S. Pat. No. 4,694,024. Laser induction took place 60 min after oral administration of the antioxidants.

[5] = olive oil, organic solvent or mixture

Structure (SMILES)	solubility [1, 5] [µg/mL]	solubility ([1]; water) [µg/mL]	color change of frying fat after the frying procedure [2]	prevention of the oxidation of SA-PC, reduced dithiol vs. corresponding oxidized dithio compounds [3]	Reduction of thrombus formation [4] [%]	suitability for use in aqueous oil emulsions owing to solubility properties [1]
CCCCCCCCCCCCCCCCCCNC(=O)CCCCC1CCSS1 (racemic) [Example 52, N-octadecyl-DL-α-lipoic acid amide]	> 10000	< 100	substantially lower color change	possible to prevent the oxidation of SA-PC Just as effectively	14	
CC(C)(Sc1cc(C(C)(C)C)c(O)c(C(C)(C)C)c1)Sc1cc(C(C)(C)C)c(O)c(C(C)(C)C)c1 [4,4'-(Isopropylidenedithio)bis[2,6-di-tert.-butylphenol], reference compound]					6	
CCCCCCCCCCCCCCCC(=O)OC[C@H](O)[C@H]1OC(=O)C(O)=C1O [Ascorbyl palmitate, reference compound]	> 100	< 100				
O[C@H](CS)[C@@H](O)CS [Dithioerythritol, reference compound]	< 100	> 10000				
Cc1c(C)c2c(c(C)c1O)CCC(C)(C(=O)NCCCNC(=O)CC[C@@H](C)[C@H]1CC[C@H]3[C@@H]4[C@H](O)C[C@@H]5C[C@H](O)CC[C@]5(C)[C@H]4C[C@H](O)[C@]13C)O2 (stereo partly shown) [Example 1]	> 10000	> 100			16	
Cc1c(C)c2c(c(C)c1O)CCC(C)(C(=O)NCCO[C@H]1CC[C@@]3(C)[C@@H](C1)C[C@@H](O)[C@@H]1[C@@H]3C[C@H](O)[C@]3(C)[C@@H]([C@H](C)CCC(=O)O)CC[C@@H]13)O2 (stereo partly shown) [Example 3]	> 1000	< 100			11	
CCCCCCCCCCCCCCCCCCNC(=O)C1(C)CCc2c(C)c(O)c(C)c(C)c2O1 (stereo not shown) [Example 6]	> 10000	< 100				
CCCCCCCCCCCCCCCC(=O)NCCCNC(=O)C1(C)CCc2c(C)c(O)c(C)c(C)c2O1 (stereo not shown) [Example 7]	> 10000	< 100				
CC(C)CCC[C@@H](C)[C@H]1CC[C@H]2[C@@H]3CC=C4C[C@@H](OCCOCc5cc(C(C)(C)C)c(O)c(C(C)(C)C)c5)CC[C@]4(C)[C@H]3CC[C@]12C [Example 13]	> 50000	< 100			17	
CCCCCCCCCCCCCCCCCCOCC(O)COCc1cc(C(C)(C)C)c(O)c(C(C)(C)C)c1 (stereo not shown) [Example 21]	> 50000	< 100				
CCCCCCCCCCCCCCCCCCCC1OC(C)(C)OCC1Cc1cc(C(C)(C)C)c(O)c(C(C)(C)C)c1 (stereo not shown) [Example 26]	> 50000	< 100				
CC(C)CCC[C@@H](C)[C@H]1CC[C@H]2[C@@H]3CC=C4C[C@@H](OCCOC5=C(O)[C@@H]([C@@H](O)CO)OC5=O)CC[C@]4(C)[C@H]3CC[C@]12C [Example 33]	> 1000	< 100			13	
CCCCCCCCCCCCCCCCCC(=O)OC[C@H](O)[C@H]1OC(=O)C(OP(=O)(OCC)OCC)=C1O [Example 34]	> 1000	< 100				
CCCCCCCCCCCCCCCCCC(=O)OC[C@H](OC(=O)CCCCCCCCCCCCCCCCC)[C@H]1OC(=O)C(OP(=O)(OCC)OCC)=C1O [Example 35]	> 1000	< 100				
CCCCCCCCCCCCCCCCCCC(COCCOC1=C(O)C(C(O)CO)OC1=O)COCCOC1=C(O)C(C(O)CO)OC1=O (stereo not shown) [Example 36]	> 10000	> 10000			17	outstandingly suitable for use in aqueous oil emulsions
CCCCCCCCCCCCCCCCCCP(=O)(OC1=C(O)C([C@@H](O)CO)OC1=O)OC1=C(O)C([C@@H](O)CO)OC1=O (stereo partly shown) [Example 37]	> 1000	> 10000				
CC(C)CCCC(C)C1CC[C@H]2C3CC=C4CC(OC(=O)CCCCC(S)CCS)CC[C@]4(C)[C@H]3CC[C@]12C (stereo partly shown) [Example 46]	> 50000	< 100				
CC(CCC(=O)NCCCNC(=O)CCCCC(S)CCS)C1CC[C@H]2C3CC[C@@H]4C[C@H](O)CC[C@]4(C)[C@H]3C[C@H](O)[C@]12C (stereo partly shown) [Example 48]	> 50000	< 100				
CCCCCCCCCCCCCCCCCCOC(=O)CCCCC(S)CCS (stereo not shown) [Example 50]	> 50000	< 100		possible to prevent the oxidation of SA-PC Just as effectively		
CCCCCCCCCCCCCCCCCCOC(=O)CCCCC1CCSS1 (stereo not shown) [Example 51]	> 50000	< 100		possible to prevent the oxidation of SA-PC Just as effectively		
CC(C)CCCC(C)C1CC[C@H]2C3CC=C4CC(OC(=O)CCCCC5CCSS5)CC[C@]4(C)[C@H]3CC[C@]12C (stereo partly shown) [Example 53]	> 50000	< 100				

Now from value to molecule, other results behind:

solubility [1, 5] [µg/mL]	solubility ([1]; water) [µg/mL]	Structure (SMILES)	color change of frying fat after the frying procedure [2]	prevention of the oxidation of SA-PC, reduced dithiol vs. corresponding oxidized dithio compounds [3]	Reduction of thrombus formation [4] [%]	suitability for use in aqueous oil emulsions owing to solubility properties [1]
< 100	> 10000	O=C(O)CCCC[C@@H](S)CCS (racemic) [Dihydrolipoic acid, Na salt, Dihydrolipoic acid, reference compound]				
< 100	> 10000	O=C(O)C(S)C(S)C(=O)O (stereo not shown) [2,3-Mercaptosuccinic acid, reference compound]				
< 100	> 10000	Cc1c(C)c2c(c(C)c1O)CCC(C)(C(=O)O)O2 (stereo not shown) [6-Hydroxy-2,5,7,8-tetramethylchroman-2-carboxylic acid, reference compound]				
> 10000	< 100	Cc1cc(C(C)(C)C)c(O)c(C(C)(C)C)c1 [BHT, butylated hydroxytoluene, reference compound]	transformed into a viscous, dark brown material			
> 10000	> 100	CCCCCCNC(=O)C1(C)CCc2c(C)c(O)c(C)c(C)c2O1 (stereo not shown) [Example 4]				
> 10000	< 100	CCCCCCC(=O)NCCCNC(=O)C1(C)CCc2c(C)c(O)c(C)c(C)c2O1 (stereo not shown) [Example 5]				
> 10000	< 100	Cc1c(C)c2c(c(C)c1O)CCC(C)(C(=O)NC1CCCCC1)O2 (stereo not shown) [Example 8]				
> 50000	< 100	CCCCCCC#CC(=O)c1cc(C(C)(C)C)c(O)c(C(C)(C)C)c1 [Example 17]	substantially lower color change			
> 50000	< 100	CCCCCCCCCCCCCCCCCCCC(=O)C(Cc1cc(C(C)(C)C)c(O)c(C(C)(C)C)c1)C(=O)OCC (stereo not shown) [Example 18, ethyl 2-(3,5-di-tert.-butyl-4-hydroxybenzyl)-3-oxo-docosanoate]	substantially lower color change			
> 50000	< 100	CC(C)(C)c1cc(C2SCCC(CCCCC(=O)O)S2)cc(C(C)(C)C)c1O (stereo not shown) [Example 19]				
> 50000	< 100	CC(C)(C)OC(=O)CCCCC(CCSCc1cc(C(C)(C)C)c(O)c(C(C)(C)C)c1)SCc1cc(C(C)(C)C)c(O)c(C(C)(C)C)c1 (stereo not shown) [Example 20]				
> 50000	< 100	CCCCCCCCCCCCCCCCCCOCC(CO)OC(=O)c1cc(C(C)(C)C)c(O)c(C(C)(C)C)c1 (stereo not shown) [Example 22]				
> 50000	< 100	CCCCCCCCCCCCCCCCCCOCC(O)COC(=O)c1cc(C(C)(C)C)c(O)c(C(C)(C)C)c1 (stereo not shown) [Example 23]				
> 50000	< 100	CCCCCCCCCCCCCCCCCCCC(O)C(Cc1cc(C(C)(C)C)c(O)c(C(C)(C)C)c1)C(=O)OCC (stereo not shown) [Example 24]				
> 50000	< 100	CCCCCCCCCCCCCCCCCCCC(O)C(CO)Cc1cc(C(C)(C)C)c(O)c(C(C)(C)C)c1 (stereo not shown) [Example 25]				
> 1000	> 10000	CCCCCCCCCCCCCCCCCCCC(O)C(Cc1cc(C(C)(C)C)c(O)c(C(C)(C)C)c1)C(=O)O (stereo not shown) [Example 27]				
> 50000	< 100	CCCCCCCCCCCCCCCCCCCC(=O)C(=Cc1cc(C(C)(C)C)c(O)c(C(C)(C)C)c1)C(=O)OCC [Example 28]				
< 100	> 10000	O=C(O)c1cc(O)c(O)c(O)c1 [Gallic acid, reference compound]				
